Reference: patent US10781197B2, “Sulfonamide analogues of galiellalactone” (GLACTONE PHARMA DEVELOPMENT AB, priority 2016, dated 2020)

The molecules below were run on STAT3 signaling (assay: STAT3 Luciferase reporter gene assay). Conditions: not given.
Format: cell-based
Method: The ability to inhibit STAT3 signaling of the example compounds in comparison to galiellalactone was evaluated using a STAT3 Luciferase reporter gene assay.
Compounds were tested for dose response activity to determine IC50 at eight different doses (0.03, 0.1, 0.3, 1, 3, 10, 30 and 100 μM) in triplicate on the STAT3 reporter system.
Briefly, the STAT3 reporter/HEK293 cell line was plated in 96-well white plates for 16 h. Cells were pretreated with compounds for 1 h. Cells were then treated with IL-6 to induce STAT3 activation for 16 h. Luciferase activity was measured and analyzed.

| Structure (SMILES) | activity in the STAT3 reporter assay (in words) |
| --- | --- |
| Cc1ccc(S(=O)(=O)N(C)[C@@]2(C)C=C3C(=O)O[C@@H]4CC[C@H](C2)[C@]34O)cc1 [Example 23, N-[(4R,7R,9R,11 S)-11-Hydroxy-9-methyl-2-oxo-3-oxatricyclo[5.3.1.0^4,11]undec-1(10)-en-9-yl]-N,4-dimethylbenzene-1-sulfonamide] | significantly reduced or total loss of activity |

Same assay, conditions: Homo sapiens; STAT3 reporter/HEK293 cell line, 1 h pretreatment, IL-6 induced for 16 h, luciferase activity; read-out: IC50

| IC50 | Structure (SMILES) |
| --- | --- |
| 3 µM | C[C@]1(NS(=O)(=O)c2ccccc2)C=C2C(=O)O[C@@H]3CCC(C1)[C@]23O (stereo partly drawn) [Example 2, N-[(4R,7R,9R,11S)-11-Hydroxy-9-methyl-2-oxo-3-oxatricyclo[5.3.1.0^4,^11]undec-1(10)-en-9-yl]benzenesulfonamide] |
| 8.41 µM | COc1ccc(S(=O)(=O)N[C@@]2(C)C=C3C(=O)O[C@@H]4CCC(C2)[C@]34O)cc1 (stereo partly drawn) [Example 3, N-[(4R,7R,9R,11S)-11-Hydroxy-9-methyl-2-oxo-3-oxatricyclo[5.3.1.0^4,^11]undec-1(10)-en-9-yl]-4-methoxybenzene-1-sulfonamide] |
| 6.71 µM | C[C@]1(NS(=O)(=O)c2ccccc2[N+](=O)[O-])C=C2C(=O)O[C@@H]3CCC(C1)[C@]23O (stereo partly drawn) [Example 4, N-[(4R,7R,9R,11S)-11-Hydroxy-9-methyl-2-oxo-3-oxatricyclo[5.3.1.0^4,^11]undec-1(10)-en-9-yl]-2-nitrobenzene-1-sulfonamide] |
| 1.76 µM | C[C@]1(NS(=O)(=O)c2ccc(C(F)(F)F)cc2)C=C2C(=O)O[C@@H]3CCC(C1)[C@]23O (stereo partly drawn) [Example 5, N-[(4R,7R,9R,11S)-11-Hydroxy-9-methyl-2-oxo-3-oxatricyclo[5.3.1.0^4,^11]undec-1(10)-en-9-yl]-4-(trifluoromethyl)benzene-1-sulfonamide] |
| 6.76 µM | Cc1cccc(S(=O)(=O)N[C@@]2(C)C=C3C(=O)O[C@@H]4CCC(C2)[C@]34O)c1 (stereo partly drawn) [Example 6, N-[(4R,7R,9R,11S)-11-Hydroxy-9-methyl-2-oxo-3-oxatricyclo[5.3.1.0^4,^11]undec-1(10)-en-9-yl]-3-methylbenzene-1-sulfonamide] |
| 4.69 µM | C[C@]1(NS(=O)(=O)c2ccccc2F)C=C2C(=O)O[C@@H]3CCC(C1)[C@]23O (stereo partly drawn) [Example 7, 2-Fluoro-N-[(4R,7R,9R,11S)-11-hydroxy-9-methyl-2-oxo-3-oxatricyclo[5.3.1.0^4,^11]undec-1(10)-en-9-yl]benzene-1-sulfonamide] |
| 5.05 µM | C[C@]1(NS(=O)(=O)c2ccc([N+](=O)[O-])cc2)C=C2C(=O)O[C@@H]3CCC(C1)[C@]23O (stereo partly drawn) [Example 8, N-[(4R,7R,9R,11S)-11-Hydroxy-9-methyl-2-oxo-3-oxatricyclo[5.3.1.0^4,^11]undec-1(10)-en-9-yl]-4-nitrobenzene-1-sulfonamide] |
| 9.31 µM | C[C@]1(NS(=O)(=O)c2ccc(C#N)cc2)C=C2C(=O)O[C@@H]3CCC(C1)[C@]23O (stereo partly drawn) [Example 9, 4-Cyano-N-[(4R,7R,9R,11S)-11-hydroxy-9-methyl-2-oxo-3-oxatricyclo[5.3.1.0^4,^11]undec-1(10)-en-9-yl]benzene-1-sulfonamide] |
| 3.2 µM | C[C@]1(NS(=O)(=O)c2ccc(Br)cc2)C=C2C(=O)O[C@@H]3CCC(C1)[C@]23O (stereo partly drawn) [Example 10, 4-Bromo-N-[(4R,7R,9R,11S)-11-hydroxy-9-methyl-2-oxo-3-oxatricyclo[5.3.1.0^4,^11]undec-1(10)-en-9-yl]benzene-1-sulfonamide] |
| 0.24 µM | C[C@]1(NS(=O)(=O)c2ccc(C3=NCCO3)cc2)C=C2C(=O)O[C@@H]3CCC(C1)[C@]23O (stereo partly drawn) [Example 11, 4-(4,5-Dihydro-1,3-oxazol-2-yl)-N-[(4R,7R,9R,11S)-11-hydroxy-9-methyl-2-oxo-3-oxatricyclo[5.3.1.0^4,^11]undec-1(10)-en-9-yl]benzene-1-sulfonamide] |
| 3.38 µM | Cc1ccc(S(=O)(=O)N[C@@]2(C)C=C3C(=O)O[C@@H]4CCC(C2)[C@]34O)nc1 (stereo partly drawn) [Example 12, N-[(4R,7R,9R,11S)-11-Hydroxy-9-methyl-2-oxo-3-oxatricyclo[5.3.1.0^4,^11]undec-1(10)-en-9-yl]-5-methylpyridine-2-sulfonamide] |
| 5.65 µM | Cc1ccc(S(=O)(=O)N[C@@]2(C)C=C3C(=O)O[C@@H]4CCC(C2)[C@]34O)cn1 (stereo partly drawn) [Example 13, N-[(4R,7R,9R,11S)-11-Hydroxy-9-methyl-2-oxo-3-oxatricyclo[5.3.1.0^4,^11]undec-1(10)-en-9-yl]-6-methylpyridine-3-sulfonamide] |
| 6.78 µM | Cc1ccc(S(=O)(=O)N[C@@]2(C)C=C3C(=O)O[C@@H]4CCC(C2)[C@]34O)s1 (stereo partly drawn) [Example 14, N-[(4R,7R,9R,11S)-11-Hydroxy-9-methyl-2-oxo-3-oxatricyclo[5.3.1.0^4,^11]undec-1(10)-en-9-yl]-5-methylthiophene-2-sulfonamide] |
| 2.9 µM | C[C@]1(NS(=O)(=O)c2ccc(C(F)(F)F)cc2Cl)C=C2C(=O)O[C@@H]3CCC(C1)[C@]23O (stereo partly drawn) [Example 15, 2-Chloro-N-[(4R,7R,9R,11S)-11-hydroxy-9-methyl-2-oxo-3-oxatricyclo[5.3.1.0^4,^11]undec-1(10)-en-9-yl]-4-(trifluoromethyl)benzene-1-sulfonamide] |
| 4.5 µM | Cc1ccc(S(=O)(=O)N[C@@]2(C)C=C3C(=O)O[C@@H]4CCC(C2)[C@]34O)cc1F (stereo partly drawn) [Example 16, 3-Fluoro-N-[(4R,7R,9R,11S)-11-hydroxy-9-methyl-2-oxo-3-oxatricyclo[5.3.1.0^4,^11]undec-1(10)-en-9-yl]-4-methylbenzene-1-sulfonamide] |
| 3.16 µM | C[C@]1(NS(=O)(=O)c2ccc(F)cc2)C=C2C(=O)O[C@@H]3CCC(C1)[C@]23O (stereo partly drawn) [Example 17, 4-Fluoro-N-[(4R,7R,9R,11S)-11-hydroxy-9-methyl-2-oxo-3-oxatricyclo[5.3.1.0^4,^11]undec-1(10)-en-9-yl]benzene-1-sulfonamide] |
| 2.26 µM | C[C@]1(NS(=O)(=O)c2ccc(Cl)cc2)C=C2C(=O)O[C@@H]3CCC(C1)[C@]23O (stereo partly drawn) [Example 18, 4-Chloro-N-[(4R,7R,9R,11S)-11-hydroxy-9-methyl-2-oxo-3-oxatricyclo[5.3.1.0^4,^11]undec-1(10)-en-9-yl]benzene-1-sulfonamide] |
| 9.69 µM | Cc1ccc(CS(=O)(=O)N[C@@]2(C)C=C3C(=O)O[C@@H]4CCC(C2)[C@]34O)cc1 (stereo partly drawn) [Example 19, N-[(4R,7R,9R,11S)-11-Hydroxy-9-methyl-2-oxo-3-oxatricyclo[5.3.1.0^4,^11]undec-1(10)-en-9-yl]-1-(4-methylphenyl)methanesulfonamide] |
| 3.63 µM | C[C@]1(NS(=O)(=O)c2ccc(N)cc2)C=C2C(=O)O[C@@H]3CC[C@H](C1)[C@]23O [Example 21, 4-Amino-N-[(4R,7R,9R,11 S)-11-hydroxy-9-methyl-2-oxo-3-oxatricyclo[5.3.1.0^4,11]undec-1(10)-en-9-yl]benzene-1-sulfonamide] |
| 11.4 µM | C[C@]1(NS(=O)(=O)c2ccc(CO)cc2)C=C2C(=O)O[C@@H]3CC[C@H](C1)[C@]23O [Example 22, N-[(4R,7R,9R,11S)-11-Hydroxy-9-methyl-2-oxo-3-oxatricyclo[5.3.1.0^4,11]undec-1(10)-en-9-yl]-4-(hydroxymethyl)benzene-1-sulfonamide] |

Same assay, conditions: STAT3 reporter/HEK293 cell line, 1 h pretreatment, IL-6 induced for 16 h, luciferase activity

| IC50 | Structure (SMILES) |
| --- | --- |
| inactive | Cc1ccc(S(=O)(=O)N(C)[C@@]2(C)C=C3C(=O)O[C@@H]4CC[C@H](C2)[C@]34O)cc1 [Example 23, N-[(4R,7R,9R,11 S)-11-Hydroxy-9-methyl-2-oxo-3-oxatricyclo[5.3.1.0^4,11]undec-1(10)-en-9-yl]-N,4-dimethylbenzene-1-sulfonamide] |

Same assay, conditions: listed as example 23

| activity in the STAT3 reporter assay (in words) | Structure (SMILES) |
| --- | --- |
| no or low activity | Cc1ccc(S(=O)(=O)N(C)[C@@]2(C)C=C3C(=O)O[C@@H]4CC[C@H](C2)[C@]34O)cc1 [Example 23, N-[(4R,7R,9R,11 S)-11-Hydroxy-9-methyl-2-oxo-3-oxatricyclo[5.3.1.0^4,11]undec-1(10)-en-9-yl]-N,4-dimethylbenzene-1-sulfonamide] |
